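Protocol summary: plate cells (96-well), add compound at 5 concentrations, incubate 48 h, interpolate endpoints linearly. GI50 is the concentration that inhibits growth by half. The concentration for full growth arrest is given as TGI.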
Legend:
Experiment in all cases: NCI tumour cell line growth inhibition, 48 h
CCRF-CEM leukemia = tested on: CCRF-CEM leukemia
HL-60(TB) leukemia = tested on: HL-60(TB) leukemia
HCC-2998 colon = tested on: HCC-2998 colon
A549 NSCLC = tested on: A549 NSCLC
SK-MEL-5 melanoma = tested on: SK-MEL-5 melanoma
IGROV1 ovarian = tested on: IGROV1 ovarian
SK-MEL-2 melanoma = tested on: SK-MEL-2 melanoma
UO-31 renal = tested on: UO-31 renal
HOP-92 NSCLC = tested on: HOP-92 NSCLC
UACC-257 melanoma = tested on: UACC-257 melanoma

Row | Structure (SMILES) | GI50 (CCRF-CEM leukemia) [µM] | TGI (CCRF-CEM leukemia) [µM] | GI50 (HL-60(TB) leukemia) [µM] | TGI (HL-60(TB) leukemia) [µM] | GI50 (HCC-2998 colon) [µM] | GI50 (A549 NSCLC) [µM] | TGI (A549 NSCLC) [µM] | GI50 (SK-MEL-5 melanoma) [µM] | GI50 (IGROV1 ovarian) [µM] | TGI (IGROV1 ovarian) [µM] | GI50 (SK-MEL-2 melanoma) [µM] | TGI (SK-MEL-2 melanoma) [µM] | GI50 (UO-31 renal) [µM] | TGI (UO-31 renal) [µM] | GI50 (HOP-92 NSCLC) [µM] | TGI (HOP-92 NSCLC) [µM] | GI50 (UACC-257 melanoma) [µM] | TGI (UACC-257 melanoma) [µM] | TGI (HCC-2998 colon) [µM] | TGI (SK-MEL-5 melanoma) [µM]
1 | COc1cc2c(c(OC)c1OC)-c1ccc(SC)c(=O)cc1C(CO)C2 (stereo unspecified) | < 0.01 | 2.27 | < 0.01 | 0.0439 | < 0.01 | < 0.01 | > 100 | < 0.01 | < 0.01 | > 100 | < 0.01 | < 0.01 | < 0.01 | > 100 | < 0.01 | > 100 | 3.45 | > 100 | – | –
2 | COc1cc(/C=C2/C(=O)N(C(=O)OCC(C)C)C(Cc3cc(OC)c(OC)c(C)c3OC)C(=O)N2Cc2ccccc2)c(OC)c(C)c1OC (stereo unspecified) | – | > 100 | – | > 100 | – | – | > 100 | – | – | > 100 | – | > 100 | – | > 100 | – | > 100 | – | > 100 | > 100 | > 100
3 | COc1ccc(Br)c(N/N=C2\CCCNC2=O)c1 | – | > 100 | – | > 100 | – | – | > 100 | – | – | > 100 | – | > 100 | – | > 100 | – | > 100 | – | > 100 | > 100 | > 100
4 | CCN(CC)CCCCNc1c2ccccc2[n+](C)c2c1[nH]c1ccccc12 | 0.59 | 3.39 | 5.69 | > 31 | 0.27 | 0.0558 | 33.2 | 0.283 | 0.473 | 7.4 | 0.31 | 0.956 | 3.13 | > 50.6 | – | 0.28 | 0.84 | 2.4 | 0.763 | 0.976
5 | COc1cc(CSc2nc3ccc(C)cc3c(=O)n2-c2ccccc2)cc(OC)c1OC | 2.66 | > 100 | 1.72 | > 100 | 5.49 | 1.59 | > 100 | 0.435 | 3.36 | > 100 | 3.52 | > 100 | 3.67 | > 100 | 1.03 | 8.74 | 19.4 | > 100 | > 100 | 19.9
6 | CC(=O)CC(=O)OC1CC(C)CCC1C(C)C (stereo unspecified) | – | 44 | – | 40.2 | – | – | > 100 | – | – | > 100 | – | 78.8 | – | > 100 | – | > 100 | – | > 100 | > 100 | > 100
7 | CN(O)c1nc(N(C)O)nc(N2CCOCC2)n1 | 0.793 | > 100 | 16 | > 100 | 8.75 | 2.94 | > 100 | 4.09 | 2.27 | > 100 | 7.7 | > 100 | 2.41 | > 100 | 8.77 | > 100 | 5.57 | 92.2 | > 100 | > 100
8 | COc1ccc(C(=O)c2cc(OC)c(OC)c(OC)c2)cc1OC(=O)CCl | 0.0297 | > 100 | < 0.0152 | < 0.025 | 0.0393 | 0.164 | > 100 | 0.0338 | 0.359 | > 100 | 0.436 | > 100 | 0.373 | > 100 | – | > 100 | > 100 | > 100 | > 100 | 0.434
9 | CCCCOC(=O)C1C2CCC(O2)C1C(=O)OCCCC (stereo unspecified) | – | > 100 | – | > 100 | – | – | > 100 | – | – | > 100 | – | > 100 | – | > 100 | – | > 100 | – | > 92.2 | > 100 | > 100
10 | COc1ccc(-c2cn(-c3cc(OC)c(OC)c(OC)c3)c(SCc3ccccc3)n2)cc1OC | > 100 | > 100 | > 100 | > 100 | 84.7 | > 100 | > 100 | 68.2 | > 100 | > 100 | > 100 | > 100 | 45.5 | > 100 | > 100 | > 100 | > 100 | > 100 | > 100 | > 100
11 | CCOC(=O)NC(=O)c1cn(CCOC(=O)CCCCCCCCC(=O)OCCn2cc(C(=O)NC(=O)OCC)c(=O)[nH]c2=O)c(=O)[nH]c1=O | – | > 100 | – | > 100 | – | – | > 100 | – | – | > 100 | – | > 100 | – | > 100 | – | > 100 | – | > 100 | > 100 | > 100
12 | O=C(CCCCCCCCC(=O)N/N=C\c1ccccc1O)N/N=C\c1ccccc1O | 0.228 | 17.4 | 0.203 | 0.687 | 2.92 | 0.81 | > 25.2 | 0.231 | 1.73 | 54.5 | 0.469 | > 36.8 | 0.197 | 3.9 | 0.216 | 0.889 | 0.368 | 4.07 | > 100 | 1.12
13 | CCC[CH2][Sn]1([CH2]CCC)[O]C(=O)c2cccnc2[O]1 | 0.731 | 3.08 | 1.34 | 3.99 | 3.76 | 18.2 | 33 | 4.57 | 4.57 | 18.4 | 1.71 | 3.81 | 7.32 | 19.9 | 1.01 | 4.63 | 1.55 | 5.04 | 14.6 | 16.8
14 | Cc1ccc(Nc2n[nH]c(=S)s2)cc1C | – | > 100 | – | > 100 | – | – | > 100 | – | – | > 100 | – | > 100 | – | > 100 | – | > 100 | – | > 100 | > 100 | > 100
15 | O=C(O)CNC(=O)c1ccc(-c2ccccc2)cc1 | – | > 100 | – | > 100 | – | – | > 100 | – | – | > 100 | – | > 100 | – | > 100 | – | > 100 | – | > 100 | > 100 | > 100
16 | C#Cc1c(F)ccc2cc(O)cc(-c3ncc4c(N5CC6CCC(C5)N6)nc(OC[C@@]56CCCN5C[C@H](F)C6)nc4c3F)c12 | 8.21 | 29.1 | 8.23 | 26.6 | 1.32 | 10.9 | 45.2 | 14.9 | 13.9 | 29.9 | 16.9 | 32.9 | > 34.8 | > 50.2 | 4.01 | 16.5 | 18.1 | 35.1 | 17.5 | 28.2
